As a reminder, the IC50 is the concentration that inhibits the measured activity by half.

Test [1] can be described thus: DPPH radical scavenging assay. Particulars: mean ± SD of three experiments; 30 min, 517 nm. The protocol:
The antioxidant potential of spirooxindoles 6a–p against DPPH˙ was evaluated as per previously described procedures by Brand-Williams et al.[32]. DPPH solution was prepared by dissolving 0.024 g DPPH in methanol (100 mL). In 96-well plates, × μL sample and 200-x μL DPPH solution were added. The plate was incubated for 30 min at room temperature in the dark, and finally, absorbance was recorded at 517 nm wavelength. Ascorbic acid was used as positive control. The percent radical scavenging potential was calculated for each compound via the following equation: Scavenging effect (%) = {(Absorbance of control − Absorbance of sample)/Absorbance of control} × 100.
The DPPH (2,2-diphenyl-1-picrylhydrazyl) radical scavenging activity assay is considered as one of the most common and simple methods for measuring the antioxidant ability to trap free radicals. […] Substances that have the potential to act as electron donors result in reduction of this DPPH radical to the corresponding DPPH2 disclosing their antioxidant potential. The principle of the method relies upon measuring the absorbance of the odd electrons of DPPH at 517 nm. The absorbance decreases, in the presence of free radical scavengers, proportional to the decrease of the DPPH radical concentration.

Test [2] can be described thus: Ferric reducing antioxidant power (FRAP). Particulars: 593 nm, 30 min at 37 °C. The protocol: The Benzie and Strain method[33] was adopted to assess the ferric reducing antioxidant power (FRAP) for spirooxindoles 6a–p. Absorbance of mixtures was recorded at 593 nm after incubation for 30 min at 37 °C. FRAP results were expressed as μM Fe^2+ equivalents.
FRAP assay is a widely used antioxidant assay that uses antioxidant substances as reducing agents in a redox-linked colorimetric reaction, wherein Fe^3+ is reduced to Fe^2+ at acidic pH that results in a formation of a coloured ferrous-probe complex from a colourless ferric-probe complex. In this assay, the electron donation capacity (reflecting the electron transfer ability) of the examined compounds is evaluated.
In this study, all spirooxindoles 6a–p herein reported were evaluated for their potential FRAP. The results were expressed as µM Fe^2+ equivalents and presented in Table 6, where the higher µM Fe^2+ equivalents value means higher FRAP and subsequently higher antioxidant capacity.

Test [3] concerns non-tumorigenic human breast MCF-10A cell line. The experiment in a line: Cytotoxicity towards non-tumorigenic MCF-10A cells. Format: cell-based.
The test system of test [4] is HepG2 hepatocellular carcinoma cell line. In words: MTT anti-proliferative assay, HepG2. Format: cell-based. Particulars: Homo sapiens, 48 h of incubation. The protocol:
(§1) Spirooxindoles 6a–p were evaluated for their anti-proliferative potency towards HepG2 liver cancer and PC-3 prostate cancer cell lines. Both cells lines were cultured as monolayers in DMEM supplemented with 10% foetal bovine serum (FBS), L-glutamine (2 mM), penicillin (100 U/mL) and streptomycin sulphate (100 µg/mL). Then, cells were sub-cultured with trypsine/EDTA solution, counted with haemocytometer and plated onto 96-well plates (5000 cells/well) and left overnight so as to form a semi-confluent monolayer.
(§2) Spirooxindoles 6a–p were tested for their in vitro anti-HCC activity against HepG2 cell line, and for their anti-prostate cancer activity against PC-3 cell line by the use of MTT reduction assay. The anticancer drug Adriamycin was co-assayed as the positive control.

Test [5] deals with PC-3 prostate cancer cell line. In words: MTT anti-proliferative assay, PC-3. As to conditions: 48 h of incubation. It counts as cell-based. The protocol: as §1, §2
For test [6], the system named is HepG2 hepatocellular carcinoma cell line. In words: MTT anti-proliferative assay, HepG2. Particulars: 48 h exposure, phase contrast microscopy. Format: cell-based. (Tetrazolium assays rely on reduction of a dye to a coloured formazan, in cell work by metabolically active cells.)

Turning to `COc1ccc2c(c1)C1(C(=O)N2)C(C#N)=C(c2ccccc2)Nc2c1c(-c1cccs1)nn2-c1ccccc1` (centres unmarked) [Compound 6m], the “DPPH radical scavenging IC50” value in test [1] is on record as 28.07 ± 1.63 µg/mL. For the same molecule, the “FRAP, µM (Fe^2+ Eq.)” value in test [2] was 12.13 µM (Fe^2+ Eq.). For the same molecule, the results for the IC50 in test [3], in test [4] and in test [5] were 186 µM, 30.6 µM and 24.3 µM, respectively.
In the case of `N#CC1=C(c2ccc(Cl)cc2)Nc2c(c(-c3cccs3)nn2-c2ccccc2)C12C(=O)Nc1ccc(Cl)cc12` (centres unmarked) [Compound 6h], in test [1], the “DPPH radical scavenging IC50” value is recorded as 46.29 ± 2.18 µg/mL. Also, the “FRAP, µM (Fe^2+ Eq.)” value in test [2] is on record as 11.35 µM (Fe^2+ Eq.). For the same molecule, the IC50 in test [4] is 19.9 µM; in test [5] it was above 50 µM.
For `COc1ccc(C2=C(C#N)C3(C(=O)Nc4ccccc43)c3c(-c4cccs4)nn(-c4ccccc4)c3N2)cc1` (centres unmarked) [Compound 6c], the “DPPH radical scavenging IC50” value in test [1] is listed as 43.04 ± 2.39 µg/mL. Further, the “FRAP, µM (Fe^2+ Eq.)” value in test [2] is on record as 10.32 µM (Fe^2+ Eq.). In addition, the IC50 in test [3] was 141 µM; in test [4], 19.1 µM; in test [5], 43.7 µM.
As to `N#CC1=C(c2ccc(Cl)cc2)Nc2c(c(-c3cccs3)nn2-c2ccccc2)C12C(=O)Nc1ccc(Br)cc12` (centres unmarked) [Compound 6l], the “DPPH radical scavenging IC50” value in test [1] came to 41.36 ± 2.17 µg/mL. The “FRAP, µM (Fe^2+ Eq.)” value in test [2] is 11.59 µM (Fe^2+ Eq.). The IC50 in test [4] is 12.7 µM; in test [5] it was above 50 µM.
Regarding `COc1ccc(C2=C(C#N)C3(C(=O)Nc4ccc(Br)cc43)c3c(-c4cccs4)nn(-c4ccccc4)c3N2)cc1` (centres unmarked) [Compound 6k], in test [1], the “DPPH radical scavenging IC50” value came out at 69.25 ± 4.25 µg/mL. For the same molecule, in test [2], the “FRAP, µM (Fe^2+ Eq.)” value is given as 8.499 µM (Fe^2+ Eq.). Moreover, the results for the IC50 in test [3], in test [4] and in test [5] were 136 µM, 13.2 µM and 39.1 µM, respectively.
Turning to `N#CC1=C(c2ccc(Cl)cc2)Nc2c(c(-c3cccs3)nn2-c2ccccc2)C12C(=O)Nc1ccccc12` (centres unmarked) [Compound 6d], the “DPPH radical scavenging IC50” value in test [1] was determined as 33.43 ± 1.24 µg/mL. For the same molecule, the “FRAP, µM (Fe^2+ Eq.)” value in test [2] is 10.99 µM (Fe^2+ Eq.). Moreover, the IC50 in test [4] was 49.1 µM; in test [5] it was above 50 µM.
For `Cc1ccc(C2=C(C#N)C3(C(=O)Nc4ccc(Cl)cc43)c3c(-c4cccs4)nn(-c4ccccc4)c3N2)cc1` (centres unmarked) [Compound 6f], the “DPPH radical scavenging IC50” value in test [1] is reported as 40.31 ± 2.61 µg/mL. Besides, the “FRAP, µM (Fe^2+ Eq.)” value in test [2] is reported as 11.36 µM (Fe^2+ Eq.). In addition, the IC50 in test [3] came to 159 µM; in test [4] it was 32.7 µM; in test [5] it was 29.3 µM.
Regarding `COc1ccc2c(c1)C1(C(=O)N2)C(C#N)=C(c2ccc(C)cc2)Nc2c1c(-c1cccs1)nn2-c1ccccc1` (centres unmarked) [Compound 6n], the “DPPH radical scavenging IC50” value in test [1] is 46.29 ± 2.52 µg/mL. Further, the “FRAP, µM (Fe^2+ Eq.)” value in test [2] is 11.58 µM (Fe^2+ Eq.). For the same molecule, the IC50 in test [4] is above 50 µM; in test [5], 42.8 µM.
Regarding `O=C1O[C@H]([C@@H](O)CO)C(O)=C1O` [Ascorbic acid, reference compound], in test [1], the “DPPH radical scavenging IC50” value worked out at 45.89 ± 2.39 µg/mL. For the same molecule, the “FRAP, µM (Fe^2+ Eq.)” value in test [2] is 13.42 µM (Fe^2+ Eq.).
As to `Cc1ccc(C2=C(C#N)C3(C(=O)Nc4ccccc43)c3c(-c4cccs4)nn(-c4ccccc4)c3N2)cc1` (centres unmarked) [Compound 6b], in test [1], the “DPPH radical scavenging IC50” value is 113.45 ± 5.59 µg/mL. The “FRAP, µM (Fe^2+ Eq.)” value in test [2] is recorded as 6.933 µM (Fe^2+ Eq.). Also, the figures for the IC50 in test [3], in test [4] and in test [5] were 122 µM, 21 µM and 34.2 µM, respectively.
On to `N#CC1=C(c2ccccc2)Nc2c(c(-c3cccs3)nn2-c2ccccc2)C12C(=O)Nc1ccc(Cl)cc12` (centres unmarked) [Compound 6e], for which the “DPPH radical scavenging IC50” value in test [1] is recorded as 36.03 ± 1.37 µg/mL. Also, the “FRAP, µM (Fe^2+ Eq.)” value in test [2] is reported as 10.12 µM (Fe^2+ Eq.). The “Morphological changes of HepG2 cells” value in test [6] was “cell rounding, shrinkage and monolayer disruption”. The figures for the IC50 in test [3], in test [4] and in test [5] were 69.7 µM, 8.4 µM and 13.5 µM, respectively.
Turning to `N#CC1=C(c2ccccc2)Nc2c(c(-c3cccs3)nn2-c2ccccc2)C12C(=O)Nc1ccc(Br)cc12` (centres unmarked) [Compound 6i], the “DPPH radical scavenging IC50” value in test [1] is 36.38 ± 2.71 µg/mL. Besides, in test [2], the “FRAP, µM (Fe^2+ Eq.)” value is listed as 11.88 µM (Fe^2+ Eq.). Also, the “Morphological changes of HepG2 cells” value in test [6] was “cell rounding, shrinkage and monolayer disruption”. For the same molecule, the figures for the IC50 in test [3], in test [4] and in test [5] were 76.9 µM, 6.3 µM and 17.9 µM, respectively.
Turning to `COc1ccc(C2=C(C#N)C3(C(=O)Nc4ccc(Cl)cc43)c3c(-c4cccs4)nn(-c4ccccc4)c3N2)cc1` (centres unmarked) [Compound 6g], in test [1], the “DPPH radical scavenging IC50” value turned out to be 97.47 ± 5.62 µg/mL. Further, the “FRAP, µM (Fe^2+ Eq.)” value in test [2] is 7.79 µM (Fe^2+ Eq.). For the same molecule, the IC50 in test [4] and in test [5] was above 50 µM throughout.
On to `COc1ccc(C2=C(C#N)C3(C(=O)Nc4ccc(OC)cc43)c3c(-c4cccs4)nn(-c4ccccc4)c3N2)cc1` (centres unmarked) [Compound 6o], for which the “DPPH radical scavenging IC50” value in test [1] was 58.82 ± 3.14 µg/mL. For the same molecule, the “FRAP, µM (Fe^2+ Eq.)” value in test [2] is recorded as 11.90 µM (Fe^2+ Eq.). Also, the IC50 in test [4] and in test [5] was above 50 µM in each case.
Consider `Cc1ccc(C2=C(C#N)C3(C(=O)Nc4ccc(Br)cc43)c3c(-c4cccs4)nn(-c4ccccc4)c3N2)cc1` (centres unmarked) [Compound 6j], for which, in test [1], the “DPPH radical scavenging IC50” value was found to be 43.42 ± 3.04 µg/mL. Besides, the “FRAP, µM (Fe^2+ Eq.)” value in test [2] is on record as 10.34 µM (Fe^2+ Eq.). The IC50 in test [3] came out at 146 µM; in test [4], 9.9 µM; in test [5], 26.6 µM.
For `COc1ccc2c(c1)C1(C(=O)N2)C(C#N)=C(c2ccc(Cl)cc2)Nc2c1c(-c1cccs1)nn2-c1ccccc1` (centres unmarked) [Compound 6p], in test [1], the “DPPH radical scavenging IC50” value is 55.05 ± 3.41 µg/mL. Besides, in test [2], the “FRAP, µM (Fe^2+ Eq.)” value was 11.18 µM (Fe^2+ Eq.). The IC50 in test [4] and in test [5] was above 50 µM each time.
With `COc1cccc2c1C(=O)c1c(O)c3c(c(O)c1C2=O)C[C@@](O)(C(=O)CO)C[C@@H]3O[C@H]1C[C@H](N)[C@H](O)[C@H](C)O1` [Adriamycin, reference compound], the IC50 in test [4] was found to be 0.12 µM; in test [5], 0.62 µM.

The record behind these values is PMC7144320, “Antitumor properties of certain spirooxindoles towards hepatocellular carcinoma endowed with antioxidant activity” (Journal of Enzyme Inhibition and Medicinal Chemistry, 2020).
